One assay concerns α9-nAChR protein. Briefly: α9-nAChR protein levels by immunoblotting in MCF-7 cells. The class given is cell-based, human. The following applies: MCF-7. How it is done:
(§1) Human mammary gland epithelial adenocarcinomas (MCF7, MDA-MB-231, AU-565, MDA-MB-453, and BT-483) and normal human mammary gland epithelial fibrocystic cell lines (MCF-10A and HBL-100) were purchased from ATCC (American Type Culture Collection, Manassas, Va., USA). MCF-7, MDA-MB-231, and MDA-MB-453 cells were maintained in DMEM, whereas BT-483 cells were maintained in RPMI-1640. Cell growth, proliferation, and viability were determined by the 3-(4,5-dimethylthiazol-2-yl)-2,5-diphenyltetrazolium (MTT) assay. The formazan product was measured by absorbance at 540 nm.
To prepare protein samples, cells were washed once with ice-cold PBS and lysed on ice in cell lysis buffer (50 mM Tris-HCl, pH 8.0, 120 mM […], 0.5% Nonidet P-40, 100 mM sodium fluoride, and 200 μM sodium orthovanadate) containing protease inhibitors as described previously (Shih, Y. L., Liu, H. C., Chen, C. S., Hsu, C. H. et al., J. Agric. Food Chem. 2010, 58, 235-241). Protein (50 μg) from each sample was resolved by 12% SDS-polyacrylamide gel electrophoresis, transferred, and analyzed by Western blotting. Antibodies were purchased from the following vendors: anti-total AKT and protein A/G agarose beads were obtained from Santa Cruz Biotechnology (Santa Cruz, Calif., USA); anti-GAPDH and anti-α9-nAChR antibodies were from Abcam (Cambridge, UK); antiphospho AKT (Ser^473), anti-c-Jun, and anti-c-Fos were from Cell Signaling Technology (Beverly, Mass., USA). The secondary antibodies, alkaline phosphatase-coupled anti-mouse, and anti-rabbit IgG were purchased from Santa Cruz Biotechnology. The specific protein complexes were identified with the chromogenic substrates nitro blue tetrazolium, and 5-bromo-4-chloro-3-indolyl-phosphate from KPL (Gaithersburg, Md., USA). In each experiment, proteins were also probed with anti-GAPDH antibodies as a protein-loading control.
Background: A western blot detects proteins with antibodies after separation by electrophoresis.

For the next assay, the system named is α9-nAChR promoter. Briefly: α9-nAChR promoter luciferase activity assay in MCF-7 cells. Conditions: EGCG 10 μM 24 h pretreatment, then Nic or E2 24 h. In kind it is cell-based, human. How it is done:
All α9-nAChR promoter—luciferase gene fusions were made in the pGL3-Basic vector (Promega, Madison, Wis., USA) by introducing the appropriate α9-nAChR promoter fragments into the polylinker upstream of the luciferase gene. These fragments were generated with restriction enzymes and cloned directly into pGL3-Basic or subcloned first in pBluescript and then transferred to pGL3-Basic. Deletion analysis of the most promoter-proximal region was performed by generating either appropriate restriction enzyme fragments or PCR fragments with suitable sense oligonucleotides and an antisense primer (5′-[…]-3′ (SEQ ID NO:1)) that anneals to the pGL3-Basic vector downstream of the site of transcription initiation.
MCF-7 cells were plated in 6-well plates. Cells were transiently cotransfected the next day with 1.5 μg of PGL3-Basic plasmid containing the full-length α9-nAChR promoter and 0.1 μg of the RLTK plasmid (Promega) using an MP-100 microporator (Digital Bio), according to the manufacturer's instructions. After incubation for 24 h, the medium was changed to culture medium containing 10% FBS or 0.1% FB S with or without Nic. Cells were lysed 24 h later with 1× Reporter Lysis Buffer (Promega) and stored frozen at −20° C. overnight. Luciferase activity was determined by testing 50 μL of the cell lysate and 50 μL of the Luciferase Assay Reagent (Promega) using a HIDEX Chameleon Microplate Reader. Relative luciferase units were normalized to renilla luciferase from the same cell lysates. Each luciferase assay experiment was performed three times.

For the next assay, the system named is p53. Kind of assay: ChIP assay of p53 binding to the α9-nAChR promoter in MCF-7 cells. The class given is cell-based, human. Conditions: EGCG 10 μM pretreatment, Nic 10 μM.
The test system of another assay is MCF-10A cells. Briefly: Cell proliferation (MTT assay) in normal MCF-10A cells. In kind it is cell-based, human. Conditions: Nic 10 μM or EGCG 10-25 μM. How it is done:
as §1
(In general: Formazan colour is commonly taken as a measure of viable cells.)

The next assay addresses T1, α9-nAChR (Homo sapiens, UniProt Q9UGM1).
T1 construct: breast cancer cell proliferation induced by Nic could be mediated through endogenous α9-nAChR; endogenous in cells; host or cells: MCF-7 cell monolayers: wild type, scramble control (Sc) and α9-nAChR siRNA knockdown (Si) clones
Briefly: [^3H]-Nic equilibrium binding in MCF-7 cells. On the procedure:
L-(−)-[N-methyl-^3H]-Nic ([^3[H]-Nic) (71-75 Ci/mmol) was purchased from Dupont/NEN Research Products (Boston, Mass., USA), and free-base Nic (99% pure) was purchased from The Eastman Kodak (Rochester, N.Y., USA). To study the uptake of [^3H]-Nic in MCF-7 cell monolayers (2×10^6 cells/well), cells were rinsed three times with a buffer containing 140 mM NaCl, 5.4 mM KCl, 1.8 mM CaCl2, 0.8 mM Mg504, 5 mM glucose, and 25 mM Hepes/Tris (pH 7.4). […] Nonspecific binding was determined by the addition of […] Nic. Total binding was evaluated for each concentration in quintuplicate, and blanks were determined in triplicate. The uptake of [^3H]-Nic was halted by aspiration of the uptake medium and washing of the wells three times with ice-cold buffer. The cells were lysed in 1 mL of 0.5% Triton X-100, and aliquots of the cell lysates were transferred to scintillation vials to determine the incorporated radioactivity by scintillation counting. Inhibition studies were carried out by adding various concentrations of unlabeled compounds to the uptake medium.

In another assay the test system is MCF-7 cells. Kind of assay: Soft agar cloning assay (colony formation) of MCF-7 cells. The class given is cell-based, human. The following applies: EGCG 10 μM, Nic 10 μM. On the procedure:
The base layer consisted of 0.9% low gelling point SeaPlaque agarose (Sigma, St. Louis, Mo., USA) in culture medium (Shih, Y. L., Liu, H. C., Chen, C. S., Hsu, C. H. et al., J. Agric. Food Chem. 2010, 58, 235-241). Soft agar, consisting of 0.4% SeaPlaque agarose in culture medium, was mixed with 1×10^4 MCF-7 cells and plated on top of the base layer in 60-mm diameter culture dishes. Soft agar cultures were maintained at 37° C. and counted for the appearance of colonies with a Leica DMI 4000B Microscope Imaging System (Leica Microsystems, Wetzlar, Germany).

Entries after “also recorded” stand apart in the source; their conditions may differ.

T1 sequence (Q9UGM1 26-479 limits assumed): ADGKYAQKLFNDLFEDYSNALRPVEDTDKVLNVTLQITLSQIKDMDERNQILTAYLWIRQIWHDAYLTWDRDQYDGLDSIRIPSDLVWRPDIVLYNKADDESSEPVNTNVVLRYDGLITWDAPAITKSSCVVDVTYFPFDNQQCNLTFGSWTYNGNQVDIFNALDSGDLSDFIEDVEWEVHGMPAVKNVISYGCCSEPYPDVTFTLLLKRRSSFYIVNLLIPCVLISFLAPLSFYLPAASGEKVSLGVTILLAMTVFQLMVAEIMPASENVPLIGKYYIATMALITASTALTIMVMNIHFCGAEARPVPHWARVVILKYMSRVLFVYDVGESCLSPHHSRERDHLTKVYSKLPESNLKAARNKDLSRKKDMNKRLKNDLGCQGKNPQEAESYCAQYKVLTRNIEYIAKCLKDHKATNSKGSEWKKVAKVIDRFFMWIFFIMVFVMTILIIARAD

With `O=C(O[C@@H]1Cc2c(O)cc(O)cc2O[C@@H]1c1cc(O)c(O)c(O)c1)c1cc(O)c(O)c(O)c1` [EGCG, (−)-epigallocatechin-3-gallate], the “Nic- and E2-induced upregulation of α9-nAChR protein after inhibitor pretreatment” value in the assay with α9-nAChR protein (24 h pretreatment (LY294002 25 μM or EGCG 10 μM), then Nic 10 μM or E2 10 nM 24 h) is recorded as “almost completely inhibited; also recorded: significantly inhibited”. Also, the “α9-nAChR protein in Nic-treated cells” value with α9-nAChR protein (EGCG 1 μM with Nic 10 μM, 24 h) was “downregulated”. For the same compound, the “α9-nAChR protein expression induced by either Nic or E2” value in the assay on α9-nAChR protein (Nic 10 μM or E2 10 nM in presence of EGCG 1-10 μM, 24 h) is on record as “significantly inhibited”. Moreover, the “Nic- and E2-induced α9-nAChR promoter luciferase activity” value with α9-nAChR promoter is listed as “significantly reduces”. Further, in the assay on p53, the “p53 binding to the α9-nAChR promoter (−125 to 0)” value is on record as “not affected”. For the same compound, the “cell number in normal breast epithelial cells” value in the assay on MCF-10A cells was “no changes”. In addition, at α9-nAChR (EGCG 10 μM 24 h pretreatment), the “[^3H]-Nic binding activity in α9-nAChR (Si) cells compared with Sc or wild-type cells” value is given as “profoundly inhibited”. Further, the “inhibition of [^3H]-Nic binding activity in (Si) cells compared with Sc or wild-type cells” value on α9-nAChR (EGCG pretreatment) is reported as > 90%. Besides, the “[^3H]-Nic binding activity, EGCG pretreated then washed group” value at α9-nAChR (MCF-7, EGCG 24 h, wash, then [^3H]-Nic 24 h) is listed as “not significantly inhibited”. In addition, at α9-nAChR (MCF-7, [^3H]-Nic + EGCG cotreatment 24 h), the “[^3H]-Nic binding activity, EGCG cotreated group” value is listed as “not significantly inhibited”. The “relative [^3H]-Nic binding activity, EGCG pretreated group” value on α9-nAChR (wild-type MCF-7, EGCG 10 μM 24 h, then [^3H]-Nic cotreatment 24 h) is recorded as “significantly blocked; also recorded: profoundly inhibited”. Moreover, in the assay on MCF-7 cells, the “colony formation in α9-nAChR (Si) cells compared with (Sc) cells” value is “profoundly inhibited”. Moreover, the “formation of transformed colonies compared with Nic-treated cells” value in the assay on MCF-7 cells (MCF-7) is “significantly inhibits”.

These data come from US20120208873A1, “TEA POLYPHENOLS PRODUCTS FOR CEASING SMOKING AND TREATING AND/OR PREVENTING NICOTINE OR NICOTINE-DERIVED COMPOUNDS OR ESTROGEN INDUCED BREAST CANCER” (priority 2011, published 2012).
